Assays:
[1] = tested on: SK-MEL-5 (melanoma cell line); assay: NCI-60 five-dose assay; conditions: SK-MEL-5
Ovarian Cancer panel = assay: NCI-60 five-dose assay, panel-level GI50 (mean graph midpoint); assay type: cell-based, human; conditions: Ovarian Cancer panel average; read-out: GI50 mean graph midpoint (MG_MID)
Procedure: (§1) Due to these preliminary results, six compounds, 1, 5, 10, 11, 17, and 20, were selected for the five-dose screen NCI-programme against the same panel of tumour cell lines.
(§2) Next, a mean graph midpoint (MG_MD) was calculated for compounds 1, 5, 10, 11, 17, and 20 and reported as waterfall graphs GI50, TGI, and LC50 in the Supplementary Materials (Figures S69–S86). In Table 9, we reported the average GI50 for the nine-cancer panels, underlining both the activity and selectivity for compounds 1, 10, 11, and 20.

Renal Cancer panel = assay: as above; assay type: cell-based, human; conditions: Renal Cancer panel average; read-out: GI50 mean graph midpoint (MG_MID)
Procedure: as §1, §2

Breast Cancer panel = assay: as above; assay type: cell-based, human; conditions: Breast Cancer panel average; read-out: GI50 mean graph midpoint (MG_MID)
Procedure: as §1, §2

Prostate Cancer panel = assay: as above; assay type: cell-based, human; conditions: Prostate Cancer panel average; read-out: GI50 mean graph midpoint (MG_MID)
Procedure: as §1, §2

CNS Cancer panel = assay: as above; assay type: cell-based, human; conditions: CNS Cancer panel average; read-out: GI50 mean graph midpoint (MG_MID)
Procedure: as §1, §2

[2] = tested on: Non-Small Cell Lung Cancer panel; assay: as above; assay type: cell-based, human; conditions: Non-Small Cell Lung Cancer panel average; read-out: GI50 mean graph midpoint (MG_MID)
Procedure: as §1, §2

[3] = tested on: MALME-3M (melanoma cell line); assay: NCI-60 five-dose assay; conditions: MALME-3M
[4] = tested on: SK-MEL-2 (melanoma cell line); assay: NCI-60 five-dose assay; conditions: SK-MEL-2
[5] = tested on: KM12 (colon cancer cell line); assay: NCI-60 five-dose assay; assay type: cell-based, human; conditions: five doses (10^−4–10^−8 M), read-out: Growth inhibition 50 (GI50)
[6] = tested on: MDA-MB-468 (breast cancer); assay: NCI-60 five-dose assay; assay type: cell-based, human; conditions: five-dose screen
[7] = tested on: SK-MEL-28 (melanoma cell line); assay: NCI-60 five-dose assay; conditions: SK-MEL-28
SR (leukemia cell line) = assay: NCI-60 five-dose assay; assay type: cell-based, human; conditions: five doses (10^−4–10^−8 M), read-out: Growth inhibition 50 (GI50)
[8] = tested on: MDA-MB-435 (melanoma cell line); assay: NCI-60 five-dose assay; conditions: MDA-MB-435
[9] = tested on: CCRF-CEM (leukemia cell line); assay: NCI-60 five-dose assay; assay type: cell-based, human; conditions: five doses (10^−4–10^−8 M), read-out: Growth inhibition 50 (GI50)
[10] = tested on: COLO 205 (colon cancer cell line); assay: NCI-60 five-dose assay; assay type: cell-based, human; conditions: five doses (10^−4–10^−8 M), read-out: Growth inhibition 50 (GI50)
Leukemia panel = assay: NCI-60 five-dose assay, panel-level GI50 (mean graph midpoint, range); assay type: cell-based, human; conditions: Leukemia panel average; read-out: GI50 mean graph midpoint (MG_MID)
Procedure: as §1, §2

Colon Cancer panel = assay: as above; assay type: cell-based, human; conditions: Colon Cancer panel average; read-out: GI50 mean graph midpoint (MG_MID)
Procedure: as §1, §2

Melanoma panel = assay: as above; assay type: cell-based, human; conditions: Melanoma panel average; read-out: GI50 mean graph midpoint (MG_MID)
Procedure: as §1, §2

[11] = tested on: HOP-92 (non-small cell lung cancer); assay: NCI-60 five-dose assay; assay type: cell-based, human; conditions: five-dose screen
Excerpt: (§3) We first evaluated the cytotoxic activity of tricyclic-pyrrole carboxamides 1–20 using the NCI-60 cell line panel, representing nine different human cancers: leukemia, melanoma, and cancers of the lung, colon, central nervous system (CNS), ovary, kidney, prostate, and breast (the one-dose graph for compounds 1–20 is reported in Supplementary Materials, Figures S43–S62). Compounds 1, 5, 10, 11, 17, and 20 satisfied pre-determined threshold inhibition criteria in a minimum number of cell lines; therefore, they were also tested in the full five-dose assay (Figures S63–S68 in the Supplementary Materials).
as §1

MCF-7 (breast cancer) = assay: NCI-60 five-dose assay; assay type: cell-based, human; conditions: five-dose screen
Excerpt: as §3, §1

[12] = tested on: HCT-116 (colon cancer cell line); assay: NCI-60 five-dose assay; assay type: cell-based, human; conditions: five doses (10^−4–10^−8 M), read-out: Growth inhibition 50 (GI50)
M14 (melanoma cell line) = assay: NCI-60 five-dose assay; conditions: M14
[13] = tested on: UACC-62 (melanoma cell line); assay: NCI-60 five-dose assay; conditions: UACC-62
[14] = tested on: RXF 393 (renal cancer cells); assay: NCI-60 five-dose assay; assay type: cell-based, human; conditions: five-dose screen
[15] = tested on: SW-620 (colon cancer cell line); assay: NCI-60 five-dose assay; assay type: cell-based, human; conditions: SW-620; five doses (10^−4–10^−8 M); read-out: Growth inhibition 50 (GI50)
[16] = read-out: Growth inhibition 50 (GI50), five doses (10^−4–10^−8 M)
[17] = read-out: LC50 (molar concentration leading to 50% net cell death)

How did the “TGI (molar concentration giving total growth inhibition)” value [1] turn out when “N-(3-(4-Benzylpiperazin-1-yl)propyl)-2-chloro-1,4,5,6-tetrahydrobenzo[6,7]cyclohepta[1,2-b]pyrrole-2-carboxamide [Compound 11]” was run?
Its value is 3.09 µM.

And the GI50 [1, 16]?
The GI50 was 1.72 µM.

What about the CC50 [1, 17] of the same substance?
The CC50 was 5.62 µM.

And the GI50 (Ovarian Cancer panel)?
Its GI50 is 7.94 µM.

And the GI50 (Renal Cancer panel)?
Its GI50 is 5.89 µM.

And the GI50 (Breast Cancer panel)?
Its GI50 is 3.47 µM.

And the GI50 (Prostate Cancer panel)?
The GI50 was 5.13 µM.

What about the GI50 (CNS Cancer panel) of the same substance?
Its GI50 is 5.25 µM.

What about the GI50 [2] of the same substance?
Its GI50 is 7.08 µM.

What about the “TGI (molar concentration giving total growth inhibition)” value [3] of the same substance?
Its value is 3.48 µM.

What about the GI50 [3, 16] of the same substance?
The GI50 was 1.9 µM.

What about the CC50 [3, 17] of the same substance?
The CC50 was 6.46 µM.

What about the “TGI (molar concentration giving total growth inhibition)” value [4] of the same substance?
The value was 20.89 µM.

And the GI50 [4, 16]?
Its GI50 is 7.85 µM.

And the CC50 [4, 17]?
Its CC50 is 47.9 µM.

What about the GI50 [5] of the same substance?
The GI50 was 4.11 µM.

What about the GI50 [6] of the same substance?
Its GI50 is 2.69 µM.

And the “TGI (molar concentration giving total growth inhibition)” value [7]?
Its value is 3.31 µM.

What about the GI50 [7, 16] of the same substance?
Its GI50 is 1.75 µM.

And the CC50 [7, 17]?
Its CC50 is 6.16 µM.

What about the GI50 (SR (leukemia cell line)) of the same substance?
The GI50 was 2.49 µM.

And the “TGI (molar concentration giving total growth inhibition)” value [8]?
The value was 7.41 µM.

What about the GI50 [8, 16] of the same substance?
The GI50 was 2.59 µM.

What about the CC50 [8, 17] of the same substance?
Its CC50 is 30.2 µM.

What about the GI50 [9] of the same substance?
Its GI50 is 3.89 µM.

And the GI50 [10]?
The GI50 was 1.65 µM.

What about the GI50 (Leukemia panel) of the same substance?
The GI50 was 2.88 µM.

And the GI50 (Colon Cancer panel)?
The GI50 was 2.81 µM.

What about the GI50 (Melanoma panel) of the same substance?
The GI50 was 2.34 µM.

What about the GI50 [11] of the same substance?
The GI50 was 2.72 µM.

What about the GI50 (MCF-7 (breast cancer)) of the same substance?
The GI50 was 2.77 µM.

And the GI50 [12]?
The GI50 was 3.37 µM.

And the “TGI (molar concentration giving total growth inhibition)” value (M14 (melanoma cell line))?
The value was 3.55 µM.

What about the GI50 (M14 (melanoma cell line); [16]) of the same substance?
The GI50 was 1.83 µM.

And the CC50 (M14 (melanoma cell line); [17])?
The CC50 was 6.92 µM.

What about the “TGI (molar concentration giving total growth inhibition)” value [13] of the same substance?
The value was 9.77 µM.

And the GI50 [13, 16]?
The GI50 was 2.55 µM.

What about the CC50 [13, 17] of the same substance?
Its CC50 is 31.6 µM.

And the GI50 [14]?
Its GI50 is 1.96 µM.

And the GI50 [15]?
The GI50 was 3.57 µM.
